As usually defined, the melting point is the temperature, or range, at which the solid turns liquid. By inhibition is commonly meant the share of the control response that was lost under treatment.

For series [1], the system named is Puccinia recondita f. Sp. Tritici. Kind of series: Puccinia recondita f. sp. tritici / wheat / leaf disc preventative (brown rust). It counts as in vivo. The following applies: foliar, 200 ppm in the applied formulation, wheat leaf segments cv. Kanzler, inoculated 1 day after application, assessed 7 to 9 days after application, read-out: disease control. The procedure:
Leaf disks or leaf segments of various plant species are cut from plants grown in a greenhouse. The cut leaf disks or segments are placed in multiwell plates (24-well format) onto water agar. The leaf disks are sprayed with a test solution before (preventative) or after (curative) inoculation. Compounds to be tested are prepared as DMSO solutions (max. 10 mg/ml) which are diluted to the appropriate concentration with 0.025% Tween20 just before spraying. The inoculated leaf disks or segments are incubated under defined conditions (temperature, relative humidity, light, etc.) according to the respective test system. A single evaluation of disease level is carried out 3 to 14 days after inoculation, depending on the pathosystem. Percent disease control relative to the untreated check leaf disks or segments is then calculated. Wheat leaf segments cv. Kanzler were placed on agar in multiwell plates (24-well format) and sprayed with the formulated test compound diluted in water. The leaf disks were inoculated with a spore suspension of the fungus 1 day after application. The inoculated leaf segments were incubated at 19° C. and 75% relative humidity (rh) under a light regime of 12 hours light/12 hours darkness in a climate cabinet and the activity of a compound was assessed as percent disease control compared to untreated when an appropriate level of disease damage appears in untreated check leaf segments (7 to 9 days after application). The following compounds at 200 ppm in the applied formulation give at least 80% disease control in this test when compared to untreated control leaf disks under the same conditions, which show extensive disease development.

For series [2], the system named is Glomerella lagenarium (Colletotrichum lagenarium). Kind of series: Glomerella lagenarium (Colletotrichum lagenarium) liquid culture / cucumber / preventative (anthracnose). The format is cell-based. The following applies: Colletotrichum orbiculare; 20 ppm in the applied formulation; liquid culture in PDB, 24° C., 3 to 4 days after application; read-out: disease control (inhibition of growth, photometric). The procedure:
Mycelia fragments or conidia suspensions of a fungus prepared either freshly from liquid cultures of the fungus or from cryogenic storage, are directly mixed into nutrient broth. DMSO solutions of the test compound (max. 10 mg/ml) are diluted with 0.025% Tween20 by a factor of 50 and 10 μl of this solution is pipetted into a microtiter plate (96-well format). The nutrient broth containing the fungal spores/mycelia fragments is then added to give an end concentration of the tested compound. The test plates are incubated in the dark at 24° C. and 96% relative humidity. The inhibition of fungal growth is determined photometrically after 2 to 7 days, depending on the pathosystem, and percent antifungal activity relative to the untreated check is calculated.
Conidia of the fungus from cryogenic storage are directly mixed into nutrient broth (PDB—potato dextrose broth). After placing a (DMSO) solution of test compound into a microtiter plate (96-well format), the nutrient broth containing the fungal spores is added. The test plates are incubated at 24° C. and the inhibition of growth is measured photometrically 3 to 4 days after application.
The following compounds at 20 ppm in the applied formulation give at least 80% disease control in this test when compared to untreated control under the same conditions, which show extensive disease development.

As to `O=C(NCc1ccccc1Cl)C(=O)c1ccc(-c2noc(C(F)(F)F)n2)s1` [Compound 1.1, N-[(2-chlorophenyl)methyl]-2-oxo-2-[5-[5-(trifluoromethyl)-1,2,4-oxadiazol-3-yl]-2-thienyl]acetamide], the melting point lay within 94 to 95.2 °C. For the same compound, the pest or weed control at 200 ppm in series [1] is no less than 80%. For the same compound, the inhibition at 20 ppm in series [2] was no less than 80%.

Turning to `COCCNC(=O)C(=O)c1ccc(-c2noc(C(F)(F)F)n2)s1` [Compound 1.2, N-(2-methoxyethyl)-2-oxo-2-[5-[5-(trifluoromethyl)-1,2,4-oxadiazol-3-yl]-2-thienyl]acetamide], the melting point lay in the range of 106 to 107.1 °C. Also, the pest or weed control at 200 ppm in series [1] was no less than 80%. In series [2], the inhibition at 20 ppm was no less than 80%.

The compound `CN(C)C(=O)C(=O)c1ccc(-c2noc(C(F)(F)F)n2)s1` [Compound 1.3, N,N-dimethyl-2-oxo-2-[5-[5-(trifluoromethyl)-1,2,4-oxadiazol-3-yl]-2-thienyl]acetamide] displayed a melting point of 88.4 to 89.4 °C. For the same compound, the pest or weed control at 200 ppm in series [1] was no less than 80%. Besides, in series [2], the inhibition at 20 ppm was no less than 80%.

Take `CON(C)C(=O)C(=O)c1ccc(-c2noc(C(F)(F)F)n2)s1` [Compound 1.4, N-methoxy-N-methyl-2-oxo-2-[5-[5-(trifluoromethyl)-1,2,4-oxadiazol-3-yl]-2-thienyl]acetamide]: the pest or weed control at 200 ppm in series [1] was no less than 80%. The inhibition at 20 ppm in series [2] was no less than 80%.

The compound `CONC(=O)C(=O)c1ccc(-c2noc(C(F)(F)F)n2)s1` [Compound 1.5, N-methoxy-2-oxo-2-[5-[5-(trifluoromethyl)-1,2,4-oxadiazol-3-yl]-2-thienyl]acetamide] registered a melting point of 109.7 to 112.1 °C. Further, in series [1], the pest or weed control at 200 ppm is no less than 80%. Moreover, the inhibition at 20 ppm in series [2] is no less than 80%.

As to `CCNC(=O)C(=O)c1ccc(-c2noc(C(F)(F)F)n2)s1` [Compound 1.6, N-ethyl-2-oxo-2-[5-[5-(trifluoromethyl)-1,2,4-oxadiazol-3-yl]-2-thienyl]acetamide], the melting point lay in the range of 142.7 to 144.6 °C. Further, the pest or weed control at 200 ppm in series [1] was no less than 80%. Moreover, in series [2], the inhibition at 20 ppm is no less than 80%.

On to `CNC(=O)C(=O)c1ccc(-c2noc(C(F)(F)F)n2)s1` [Compound 1.7, N-methyl-2-oxo-2-[5-[5-(trifluoromethyl)-1,2,4-oxadiazol-3-yl]-2-thienyl]acetamide], for which the melting point is 96.2 to 98.7 °C. The pest or weed control at 200 ppm in series [1] is no less than 80%. Besides, in series [2], the inhibition at 20 ppm was no less than 80%.

In the case of `O=C(NC1CC1)C(=O)c1ccc(-c2noc(C(F)(F)F)n2)s1` [Compound 1.8, N-cyclopropyl-2-oxo-2-[5-[5-(trifluoromethyl)-1,2,4-oxadiazol-3-yl]-2-thienyl]acetamide], the melting point was in the range of 122.1 to 126.7 °C. Besides, the pest or weed control at 200 ppm in series [1] is no less than 80%. Besides, in series [2], the inhibition at 20 ppm was no less than 80%.
